Columns and labels:
E. coli TOP10 = assay: growth inhibition screen by expression of the peptide in host bacteria (pBAD/gIIIA, L-arabinose induction, OD600); type: cell-based; settings: E. coli TOP10, OD600 before and 4 hours after L-arabinose induction
E. coli DH5α = assay: microbroth dilution method, peptide and antibiotic combination; type: cell-based
Experimental: To determine whether or not antimicrobial peptides as described herein act in a synergistic manner with antibiotic compounds, a microbroth dilution method was performed against E. coli DH5α performed according to the guidelines of the National Committee for Clinical Laboratory Standards.

[1] = antibiotic alone (—), E. coli DH5α
[2] = in combination with SEQ ID NO: 7, E. coli DH5α
[3] = in combination with SEQ ID NO: 8, E. coli DH5α

Molecule: A4: antimicrobial peptide produced by mutagenesis based on SEQ ID NO: 7 and/or 8 (MVKRGFGKNLRRRPTKFRNSIRNRLKNFNIEFPVPRQG; Antimicrobial peptide A4)
- antimicrobial activity: inhibiting bacterial growth and/or killing bacteria on expression (in words) (E. coli TOP10): having antimicrobial activity

Molecule: 5: antimicrobial peptide produced by mutagenesis based on SEQ ID NO: 7 and/or 8 (chain 1 SSRSAAGTIWEFEAF; chain 2 MVKRGLGKNLKRRATKIGNGIKNTLRNFNVVFPIPRPG; Consensus sequence of antimicrobial peptide; Antimicrobial peptide 5) [compound 5]
- antimicrobial activity: inhibiting bacterial growth and/or killing bacteria on expression (in words) (E. coli TOP10): having antimicrobial activity

Molecule: CC1(C)S[C@@H]2[C@H](NC(=O)[C@H](N)c3ccccc3)C(=O)N2[C@H]1C(=O)O [Ampicillin]
- MIC of antibiotic (E. coli DH5α; [1]): 2 µg/mL
- MIC of antibiotic (E. coli DH5α; [2]): 2 µg/mL
- MIC of antibiotic (E. coli DH5α; [3]): 4 µg/mL

Molecule: F12: peptide by mutagenesis based on a consensus sequence for antimicrobial C-terminal fragments of cathelicidin proteins (MVIGDRFKKFRERLVELRGRNGARLRPLMNIMGGRSAG; Antimicrobial peptide F12)
- antimicrobial activity: inhibiting bacterial growth and/or killing bacteria on expression (in words) (E. coli TOP10): having antimicrobial activity

Molecule: F6: peptide by mutagenesis based on a consensus sequence for antimicrobial C-terminal fragments of cathelicidin proteins (MVLRGFLKRFGGKILRNRGRDGATLKDFLKMIATRIPH; Antimicrobial peptide F6)
- antimicrobial activity: inhibiting bacterial growth and/or killing bacteria on expression (in words) (E. coli TOP10): having antimicrobial activity

Molecule: 20: antimicrobial peptide produced by mutagenesis based on SEQ ID NO: 7 and/or 8 (MVKRGFGESLRRRVTKLRDDIKKH; Antimicrobial peptide 20) [compound 20]
- antimicrobial activity: inhibiting bacterial growth and/or killing bacteria on expression (in words) (E. coli TOP10): having antimicrobial activity

Molecule: F7: peptide by mutagenesis based on a consensus sequence for antimicrobial C-terminal fragments of cathelicidin proteins (MVLGGFSRCRWLEEKLRDFMKNLVVRIAG; Antimicrobial peptide F7)
- antimicrobial activity: inhibiting bacterial growth and/or killing bacteria on expression (in words) (E. coli TOP10): having antimicrobial activity

Molecule: 28: antimicrobial peptide produced by mutagenesis based on SEQ ID NO: 7 and/or 8 (chain 1 MVLGGFSRCRWLEEKLRDFMKNLVVRIAG; chain 2 MVKRGLGEKLRRRPKKFGIVLGIH; Antimicrobial peptide F7; Antimicrobial peptide 28) [compound 28]
- antimicrobial activity: inhibiting bacterial growth and/or killing bacteria on expression (in words) (E. coli TOP10): having antimicrobial activity

Molecule: 10: antimicrobial peptide produced by mutagenesis based on SEQ ID NO: 7 and/or 8 (MVKRGFGKRLRKRPKKFRNSIKKRLKNFNVVFPVPRPG; antimicrobial peptide A12) [compound 10]
- antimicrobial activity: inhibiting bacterial growth and/or killing bacteria on expression (in words) (E. coli TOP10): having antimicrobial activity

Molecule: E3: peptide by mutagenesis based on a consensus sequence for antimicrobial C-terminal fragments of cathelicidin proteins (MVLGGCLRKGGGRLVGMFGRFRATLKNLLDMLGRRIEG; Antimicrobial peptide E3)
- antimicrobial activity: inhibiting bacterial growth and/or killing bacteria on expression (in words) (E. coli TOP10): having antimicrobial activity

Molecule: O=C(N[C@H](CO)[C@H](O)c1ccc([N+](=O)[O-])cc1)C(Cl)Cl [Chloramphenicol]
- MIC of antibiotic (E. coli DH5α; [1]): 4 µg/mL
- MIC of antibiotic (E. coli DH5α; [2]): 1 µg/mL
- MIC of antibiotic (E. coli DH5α; [3]): 2 µg/mL

Molecule: B1: peptide by mutagenesis based on a consensus sequence for antimicrobial C-terminal fragments of cathelicidin proteins (MVLGDLLRRVGGKFEEFFGKIRETIRTIRICSHLLLRGSSRSAAGTIWEFEAF; Antimicrobial peptide B1)
- antimicrobial activity: inhibiting bacterial growth and/or killing bacteria on expression (in words) (E. coli TOP10): having antimicrobial activity

Molecule: A5: antimicrobial peptide produced by mutagenesis based on SEQ ID NO: 7 and/or 8 (MVKRGFWKKLKRKAKKFRNSIRKTLKNFNIIIPVPLPG; Antimicrobial peptide A5)
- antimicrobial activity: inhibiting bacterial growth and/or killing bacteria on expression (in words) (E. coli TOP10): having antimicrobial activity

Molecule: A6: antimicrobial peptide produced by mutagenesis based on SEQ ID NO: 7 and/or 8 (MVKRGLGKKLKKKPKKFRNSIKKRLKNFNIEIPIPRQG; Antimicrobial peptide A6)
- antimicrobial activity: inhibiting bacterial growth and/or killing bacteria on expression (in words) (E. coli TOP10): having antimicrobial activity

Molecule: H6: peptide by mutagenesis based on a consensus sequence for antimicrobial C-terminal fragments of cathelicidin proteins (MVIGDCLRRVRGSLENTVRDLNQGLGILRLRW; Antimicrobial peptide H6)
- antimicrobial activity: inhibiting bacterial growth and/or killing bacteria on expression (in words) (E. coli TOP10): having antimicrobial activity

Molecule: G10: peptide by mutagenesis based on a consensus sequence for antimicrobial C-terminal fragments of cathelicidin proteins (MVIRGLLKRGKGRILGLLGRNGKRLRAIMDMFRRRSQQ; Antimicrobial peptide G10)
- antimicrobial activity: inhibiting bacterial growth and/or killing bacteria on expression (in words) (E. coli TOP10): having antimicrobial activity

Molecule: F4: peptide by mutagenesis based on a consensus sequence for antimicrobial C-terminal fragments of cathelicidin proteins (MVLGGRSGKVRERFRRIFERYEAKIRTFMEILAAPSQD; Antimicrobial peptide F4)
- antimicrobial activity: inhibiting bacterial growth and/or killing bacteria on expression (in words) (E. coli TOP10): having antimicrobial activity

Molecule: A10: antimicrobial peptide produced by mutagenesis based on SEQ ID NO: 7 and/or 8 (MVKRGFGKKLKKKAKKFRNSIRKRLKNFNVKIPVPLPG; Antimicrobial peptide A10)
- antimicrobial activity: inhibiting bacterial growth and/or killing bacteria on expression (in words) (E. coli TOP10): having antimicrobial activity

Molecule: CN(C)[C@@H]1C(O)=C(C(N)=O)C(=O)[C@@]2(O)C(O)=C3C(=O)c4c(O)cccc4[C@@](C)(O)[C@H]3C[C@@H]12 [Tetracycline]
- MIC of antibiotic (E. coli DH5α; [1]): 2 µg/mL
- MIC of antibiotic (E. coli DH5α; [2]): 0.25 µg/mL
- MIC of antibiotic (E. coli DH5α; [3]): 0.5 µg/mL

Molecule: G9: peptide by mutagenesis based on a consensus sequence for antimicrobial C-terminal fragments of cathelicidin proteins (MVLGGFLRNVRWEIWKKGLSLFCQISYFVVRSSSRSAAGTIWEFEAF; Antimicrobial peptide G9)
- antimicrobial activity: inhibiting bacterial growth and/or killing bacteria on expression (in words) (E. coli TOP10): having antimicrobial activity

Molecule: A12: antimicrobial peptide produced by mutagenesis based on SEQ ID NO: 7 and/or 8 (MVKRGFGKRLRKRPKKFRNSIKKRLKNFNVVFPVPRPG; antimicrobial peptide A12)
- antimicrobial activity: inhibiting bacterial growth and/or killing bacteria on expression (in words) (E. coli TOP10): having antimicrobial activity

Molecule: A11: antimicrobial peptide produced by mutagenesis based on SEQ ID NO: 7 and/or 8 (MVKRGFGKKLRKRATKFRNSIRKRLKNFNIIFPVPRQG; Antimicrobial peptide A11)
- antimicrobial activity: inhibiting bacterial growth and/or killing bacteria on expression (in words) (E. coli TOP10): having antimicrobial activity

Molecule: 13: antimicrobial peptide produced by mutagenesis based on SEQ ID NO: 7 and/or 8 (MVKRGFWKSLKRKLKKFGMILGID; Antimicrobial peptide 13) [compound 13]
- antimicrobial activity: inhibiting bacterial growth and/or killing bacteria on expression (in words) (E. coli TOP10): having antimicrobial activity

B1: 27: antimicrobial peptide produced by mutagenesis based on SEQ ID NO: 7 and/or 8 (peptide)
chain 1: MVLRGFLKRFGGKILRNRGRDGATLKDFLKMIATRIPH
chain 2: MVKRGFGKRLRRKATKLGMILRRH
modifications: Antimicrobial peptide F6; Antimicrobial peptide 27
- antimicrobial activity: inhibiting bacterial growth and/or killing bacteria on expression (in words) (E. coli TOP10): having antimicrobial activity

B2: B6: peptide by mutagenesis based on a consensus sequence for antimicrobial C-terminal fragments of cathelicidin proteins (peptide)
chain: MVGIVSGEFRGSFEKCVGGIDKSLGILRLSWDLVLRGILRLSWDLVLRGSSRSAAGTIWEFEAF
modifications: Antimicrobial peptide B6
- antimicrobial activity: inhibiting bacterial growth and/or killing bacteria on expression (in words) (E. coli TOP10): having antimicrobial activity

From patent US20110209228A1, “METHOD OF TREATMENT USING ANTIMICROBIAL COMPOSITION” (priority 2008, published 2011)
